According to patent US20170312253A1 (The Third Affiliated Hospital, Third Military Medical …, priority 2014, published 2017):

Legend:
Aβ42 = Aβ42 (Homo sapiens, UniProt P05067); assay: Thioflavin T fluorescence test, inhibition of Aβ aggregation; assay type: biochemical; settings: 10 μM Aβ 42, Edaravone 0-100 μM, 37° C., two days
SH-SY5Y cells = assay: MTT cell viability assay, Aβ-treated SH-SY5Y cells; assay type: cell-based; settings: 1 μM Aβ oligomers, 24 h, dose-dependent
Protocol: The SH-SY5Y cell line was purchased from the Peking Union Hospital Cell Bank, cultured in a humidified incubator under 5% CO2 and 37° C., A MTT cell viability assay was performed according to the instructions in the kit (Sigma). […] The optical density values were determined at a wavelength of 563 nm (Synergy H4, Bio Tek). The neurite growth test was performed according to the method described in the prior documents (see, for example, Wang, Y. J., et al., Effects of proNGF on neuronal viability, neurite growth and amyloid-beta metabolism. Neurotox Res, 2010, 17(3): p. 257-67).

[1] = tested on: Aβ deposition in the blood vessels of the brain; assay: Cerebrovascular amyloidosis detection (double immunofluorescence 1a4/6E10); assay type: in vivo; settings: AD mice
Protocol: (§1) APPswe/PS1DE9 (AD) transgenic mice were purchased from Jackson Laboratory, USA (No. 005864), raised in the SPF grade animal house of The Third Affiliated Hospital of The Third Military Medical University. All the processes and correlated experiments applied to the mice were approved and filed with the Animal Ethics Committee of the Third Military Medical University. […] Alternatively, the daily dose for the prophylactic group may be 6.4 mg/kg, and the daily dose for the treatment group may be 12.8 mg/kg. Administration from 3-month old to 9-month old is the prophylactic test, and administration from 9-month old to 12-month old is the therapeutic test After reaching a stated time, the mice in each group received behavioral tests according to the method in the follows. Three mice in each group were taken for Golgi staining. The remaining mice were overly anaesthetized to receive brain anatomy. One side of the cerebral hemisphere was frozen and then for a biochemical analysis, and the other side of the cerebral hemisphere was fixed with 4% paraform for a histological analysis.
A new assessment method was applied in the present research to assess the severity of the cerebrovascular amyloidosis. The blood vessels in the brain were double immunofluorescence stained with α-smooth muscle action antibody (1a4) and Aβ antibody (6E10), observed under eonfocal laser microscopy (Radiance 2000MP, Bio-Rad), and the images of the blood vessels were recorded. The severity of the CAA of each blood vessel was scored based on the following four-level scale: level 0: no Aβ deposition; level 1: little Aβ deposition, Aβ deposition occupies less than one third of the perimeter of the blood vessel; level 2: moderate Aβ deposition, Aβ deposition occupies more than one third but less than two thirds of the perimeter of the blood vessel; level 3: severe deposition, Aβ deposition occupies more than […] of the perimeter of the blood vessel.

Aβ, CTFβ = assay: Western blot of Aβ and CTFβ in brain; assay type: in vivo; settings: AD mice
Protocol: (§2) APPswe/PS1DE9 (AD) transgenic mice were purchased from Jackson Laboratory, USA (No. 005864), raised in the SPF grade animal house of The Third Affiliated Hospital of The Third Military Medical University. All the processes and correlated experiments applied to the mice were approved and filed with the Animal Ethics Committee of the Third Military Medical University. […] Alternatively, the daily dose for the prophylactic group may be 6.4 mg/kg, and the daily dose for the treatment group may be 12.8 mg/kg. […]
(§3) The enzymes related with Aβ formation and degradation their molecule levels, the levels of hyperphosphprylated Tau proteins, and the levels of synaptic plasticity correlated proteins were all detected with Western blot. […] The blotting was detected with the following antibodies: APP C terminal antibody (171610, Millipore), BACE1 antibody (Millipore), Aβ antibody (6E10, Abcam), Nepriiysin antibody (Millipore), RAGE antibody (Millipore), LRP antibody (5A6, Calbiochem), IDE antibody (epitomics), phosphorylated Tau protein antibody, including pS396 (Signalway), pT231 (Signalway), pS199 (epitomics), pS262 (Abcam), SNAP25 antibody (Millipore), Synaptophysin antibody (Millipore), Synapsin I antibody (Millipore), VAMP1 antibody (Millipore), PSD95 antibody (Millipore), F-actin antibody (Actin) (Sigma-Aldrich). […]

RAGE = assay: Western blot of Aβ metabolizing enzymes in brain: RAGE; assay type: in vivo; settings: AD mice brain
Protocol: as §2, §3

β-secretase (BACE1) = assay: Western blot of BACE1 expression in brain; assay type: in vivo; settings: AD mice brain
Protocol: as §2, §3

Gsk-3β [2] = molecular target: T1, Gsk-3β (Mus musculus, UniProt Q9WV60); assay: Gsk-3β activity in the brain of AD mice; assay type: in vivo
T1 construct: from tissue; host or cells: brain of APPswe/PS1DE9 mice
Protocol: as §1

Gsk-3β [3] = molecular target: Gsk-3β (Homo sapiens, UniProt P49841); assay: In vitro test of Gsk-3β activities
microglia = assay: Microglia reaction immunostaining (CD45); assay type: in vivo; settings: AD mice
Protocol: as §1
Immunohistochemistry in the method of bleach section was carried out according to the previous steps. The primary antibodies were rabbit-anti-mouse CD45 antibody (for labelling microglias), rabbit-anti-mouse GFAP (for labelling astrocytes) and rabbit-anti-mouse pSer396-Tau antibody, respectively. […]

[4] = tested on: neural inflammatory reactions; assay: Neural inflammatory reaction in brain (ELISA of IL-6, IL-1β, INF-γ, TNF-β); assay type: in vivo; settings: AD mice
Protocol: as §1
After homogenating the frozen brain tissues, extraction was conducted with TBS, SDS and formic acid successively. The TBS, SDS and formic acid extracts represent soluble Aβ, loosen senile plaques and compact senile plaques, respectively. […]

[5] = tested on: oxidation level in the brain; assay: Oxidation level in brain tissues, DNPH Western blotting; assay type: in vivo; settings: AD mice
Protocol: as §1, with “The remaining mice were overly anaesthetized to receive brain anatomy. One side of the cerebral hemisphere was frozen and then for a biochemical analysis, and the other side of the cerebral hemisphere was fixed with 4% paraform for a histological analysis.” left out
The carbonyl level of the proteins in the tissue reflects the oxidation level in the tissue. DNPH is reacted with the carbonyl of the proteins to form a protein-DNP hydrazone complex, and the level of the complex can he detected with DNPH antibodies so as to assess the oxidation level in the tissue, A 5 μl sample of fresh brain tissues was co-incubated with 12% SDS and a 10 μl DNPH working solution at room temperature for 20 min. […] Samples containing 15 μg total proteins were loaded and detected with Western blot. […]

neurons = assay: Neuron apoptosis in the brain of AD mice; assay type: in vivo
Protocol: as §1

[6] = prophylactic and therapeutic test

Sequence of Aβ42 (P05067 672-713 limits assumed): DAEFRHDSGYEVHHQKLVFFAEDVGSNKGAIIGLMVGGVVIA
Sequence of Gsk-3β (Homo sapiens, UniProt P49841) (P49841 whole entry, species assumed): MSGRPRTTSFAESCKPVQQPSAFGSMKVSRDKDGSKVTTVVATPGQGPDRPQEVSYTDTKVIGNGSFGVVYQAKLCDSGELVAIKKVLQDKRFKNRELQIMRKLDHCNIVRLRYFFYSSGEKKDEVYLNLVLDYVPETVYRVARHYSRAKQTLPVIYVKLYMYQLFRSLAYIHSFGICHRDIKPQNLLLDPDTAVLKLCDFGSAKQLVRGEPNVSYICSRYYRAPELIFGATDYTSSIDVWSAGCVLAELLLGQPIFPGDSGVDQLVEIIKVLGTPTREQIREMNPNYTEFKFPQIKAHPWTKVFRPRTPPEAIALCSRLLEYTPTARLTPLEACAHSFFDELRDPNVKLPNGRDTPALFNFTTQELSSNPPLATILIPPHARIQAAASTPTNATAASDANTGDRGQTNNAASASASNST
T1 sequence (Q9WV60 whole entry): as the sequence (P49841 whole entry, species assumed) above, with T390P, T392A, A400T, T402A counted along it

`CC1=NN(c2ccccc2)C(=O)C1` [Edaravone, 3-methyl-1-phenyl-2-pyrazolin-5-one] was tested, and the “inhibition of Aβ aggregation (thioflavin T)” value (Aβ42) was “effectively inhibit Aβ aggregation in a dose-dependent manner”, the cell survival rate (SH-SY5Y cells) was “cell survival rate increases significantly” and the “proportions of the blood vessels at level 0 and level 1 CAA” value [1] was “significantly increased”. For the same compound, the “proportions of the blood vessels at level 2 and level 3 CAA” value [1] was “significantly reduced”, the “Aβ deposition in the blood vessels of the brain” value ([1]; Edaravone treatment group) was “significantly reduced” and the “formation of Aβ in the brain (Western blot)” value (Aβ, CTFβ) was “reduce the formation of Aβ in the brain”. The “formation of CTFβ (Western blot)” value (Aβ, CTFβ) was “decrease the formation of CTFβ”, the “influence on RAGE” value (RAGE) was “no influence” and the “expression of β-secretase (BACE1)” value (β-secretase (BACE1)) was “significant decrease”. For the same compound, the “activity of Gsk-3β” value (Gsk-3β [2]) was “inhibit the activity of Gsk-3β”, the “Gsk-3β activities in vitro” value (Gsk-3β [3]) was “inhibits the Gsk-3β activities” and the “microglia reaction level in the brain” value (microglia; p.o.) was “significantly reduced, too”. For the same compound, the “microglia reaction in the brain” value (microglia; [6]) was “all reduced significantly”, the “neural inflammatory reaction level in the brain” value ([4]; p.o.) was “significantly reduced, too” and the “neural inflammatory reaction in the brain” value [4, 6] was “all reduced significantly”. For the same compound, the “oxidation level in the brain” value [5] was “significantly reduces the oxidation level” and the “neuron apoptosis in the brain” value (neurons) was “significantly reduce the neuron apoptosis”.
